# Assays:
# [1] = test system: mechanical allodynia after chronic constriction injury (CCI) to the sciatic nerve; experiment: Repeated administration, mechanical allodynia (Dynamic Plantar Aesthesiometer) in CCI rats; assay type: in vivo, rat; details: for difference between the pain relieving values before and after treatment, Mechanical Allodynia: day 14 minus day 7
# Method: (§1) Painful neuropathy was induced in male Wistar rats weighing 200-220 g (Harlan, Italy). Animals were anaesthetized with sodium pentobarbital (60 mg kg^−1 i.p.) and submitted to a surgical procedure to induce neuropathic pain according to Bennet & Xie (1988).
# (§2) This procedure was a chronic constriction injury (CCI) to the sciatic nerve, this was achieved by exposing the common sciatic nerve at the level of the mid thigh and, proximal to the sciatic nerves trifurcation, four ligatures were loosely tied around it with about 1 mm spacing so that the epineural circulation was preserved.
# (§3) Sham animals (sciatic exposure without ligation) were used as controls.
# (§4) The compounds tested were a cannabinoid-containing plant extract which contained a ratio of CBD:THC of approximately 24:1. From Table 1 this could also be described as a “CBD-containing plant extract”. The extract comprised CBD at a concentration of 10 mg/kg and THC at a concentration of 0.42 mg/kg. Pure cannabinoids CBD (at a concentration of 10 mg/kg) and THC (at a concentration of 0.42 mg/kg) were also used as test articles for comparison to the cannabinoid-containing plant extract.
# (§5) The test compounds were dissolved in a 1:1:18 mixture of ethanol, cremophor and saline.
# (§6) In the repeated administration study the rats received the test compounds or the vehicle orally once a day for seven days, starting from the seventh day after the surgical procedure.
# (§7) The animals pain response was monitored (i) before surgery, (ii) on day 7 (before starting the treatment) and (iii) on day 14 (24 hours after the last administration of the test article).
# (§8) Mechanical allodynia was assessed using the Dynamic Plantar Aesthesiometer (Ugo Basile, Varese, Italy). Particularly, animals were placed in a test cage with a wire mesh floor, and the tip of von Frey-type filament was applied to the middle of the plantar surface of the hind paw. The filament exerted an increasing force starting below the threshold of detection and increasing until the animal removed its paw. Withdrawal threshold was expressed as tolerance level in g.
# (§9) Table 5 below details the data produced by the repeated administration of the vehicle to the sham animals or administration of vehicle or test article to animals with CCI. Test article or vehicle was administered 7 days after the chronic constriction injury was applied and was administered once a day for a further seven days.
# [2] = test system: mechanical allodynia after chronic constriction injury (CCI) to the sciatic nerve; experiment: Acute administration, mechanical allodynia (Dynamic Plantar Aesthesiometer) in CCI rats; assay type: in vivo, rat; details: for Withdrawal threshold: CCI rats 14 days after injury, THC 0.42 mg/kg, CBD 10 mg/kg; for mean pain relieving effect of the test article when compared to the vehicle as a percentage, Mechanical Allodynia: mean over the test period
# Method: as §1, §2, §3, §4, §5
# (§10) The acute administration of compounds was evaluated in rats treated with vehicle for one week and subsequently provided with the test article prior to the behavioural evaluations. The behavioural evaluations were performed at different times (between 30 min to 24 hours).
# as §8
# Table 3 below details the data produced by the acute administration of the vehicle to the sham animals or administration of vehicle or test article to animals with CCI, 14 days after the injury occurred.
# [3] = test system: thermal hyperalgesia after chronic constriction injury (CCI) to the sciatic nerve; experiment: Repeated administration, thermal hyperalgesia (Hargreaves plantar test) in CCI rats; assay type: in vivo, rat; details: for difference between the pain relieving values before and after treatment, Thermal Hyperalgesia: day 14 minus day 7
# Method: as §1, §2, §3, §4, §5, §6, §7
# (§11) Thermal hyperalgesia was tested according to the Hargreaves procedure (Hargreaves et al., 1988) using the plantar test (Ugo Basile, Varese, Italy).
# (§12) Briefly, animals were placed in a clear plexiglass box and allowed to acclimatise. A constant intensity radiant heat source was aimed at the midplantar area of the hind paw. The time, in seconds, from initial heat source activation until paw withdrawal was recorded.
# as §9, with “4” for “5”
# [4] = test system: neuropathic pain model of chronic constriction injury of the rat sciatic nerve; details: purified compound; thermal and mechanical hyperalgesia and mechanical allodynia; cited from earlier work
# [5] = test system: thermal hyperalgesia after chronic constriction injury (CCI) to the sciatic nerve; experiment: Acute administration, thermal hyperalgesia (Hargreaves plantar test) in CCI rats; assay type: in vivo, rat; details: for Withdrawal latency: CCI rats 14 days after injury, THC 0.42 mg/kg, CBD 10 mg/kg; for mean pain relieving effect of the test article when compared to the vehicle as a percentage, Thermal Hyperalgesia: mean over the test period
# Method: as §1, §2, §3, §4, §5, §10, §11, §12
# Table 2 below details the data produced by the acute administration of the vehicle to the sham animals or administration of vehicle or test article to animals with CCI, 14 days after the injury occurred.
# [6] = test system: patients taking carbamezepine; details: cited from earlier work
# [7] = day 0 (prior to CCI), baseline of the treatment group
# [8] = day 7 after CCI (before drug treatment), baseline of the treatment group
# [9] = day 14 after CCI (after 7 days of drug treatment, orally once a day; THC 0.42 mg/kg, CBD 10 mg/kg)
# [10] = repeated administration, 7 days
SMILES,"Withdrawal threshold [1, 7] [g]","Withdrawal threshold [1, 8] [g]","Withdrawal threshold [1, 9] [g]","difference between the pain relieving values before and after treatment, Mechanical Allodynia ([1]; repeated administration) [g]",Withdrawal threshold ([2]; 30 min after administration) [g],Withdrawal threshold ([2]; 60 min after administration) [g],Withdrawal threshold ([2]; 90 min after administration) [g],Withdrawal threshold ([2]; 120 min after administration) [g],Withdrawal threshold ([2]; 150 min after administration) [g],Withdrawal threshold ([2]; 180 min after administration) [g],"mean pain relieving effect of the test article when compared to the vehicle as a percentage, Mechanical Allodynia [2] [%]","Withdrawal latency [3, 7] [s]","Withdrawal latency [3, 8] [s]","Withdrawal latency [3, 9] [s]","difference between the pain relieving values before and after treatment, Thermal Hyperalgesia ([3]; repeated administration) [s]","pain relieving effect (in words), thermal hyperalgesia [5]",Withdrawal latency ([5]; 30 min after administration) [s],Withdrawal latency ([5]; 60 min after administration) [s],Withdrawal latency ([5]; 90 min after administration) [s],Withdrawal latency ([5]; 120 min after administration) [s],other results
"C=C(C)[C@@H]1CCC(C)=C[C@H]1c1c(O)cc(CCCCC)cc1O [CBD, cannabidiol]",34,15,19,4,10,10,11,10,10,10,−13,10.4,5.5,8.7,3.2,did not produce any pain relieving effects,5.4,5.4,5.4,5.3,"pain relieving effect (in words), mechanical allodynia [2]: did not produce any pain relieving effects; relief of neuropathic pain (in words) [4]: can partially relieve neuropathic pain; Withdrawal latency ([5]; 150 min after administration): 5.4 s; Withdrawal latency ([5]; 180 min after administration): 5.3 s; mean pain relieving effect of the test article when compared to the vehicle as a percentage, Thermal Hyperalgesia [5]: −4%"
"CCCCCc1cc(O)c2c(c1)OC(C)(C)[C@@H]1CCC(C)=C[C@@H]21 [THC, delta-9-tetrahydrocannabinol]",31,12,10,-2,12,9,15,21,13,10,14,9.8,5.8,4.8,-1.0,increased the withdrawal latency over that of the vehicle treated animals,11.0,10.2,9.8,6.0,"pain relieving effect (in words), mechanical allodynia [1, 10]: did not result in any pain relieving effect; peak withdrawal threshold ([2]; peak after 120 minutes): 20 g; pain relieving effect (in words), thermal hyperalgesia [3, 10]: did not result in any pain relieving effect; Withdrawal latency ([5]; 150 min after administration): 5.0 s; Withdrawal latency ([5]; 180 min after administration): 5.3 s; mean pain relieving effect of the test article when compared to the vehicle as a percentage, Thermal Hyperalgesia [5]: 47%"
NC(=O)N1c2ccccc2C=Cc2ccccc21 [carbamezepine],–,–,–,–,–,–,–,–,–,–,–,–,–,–,–,–,–,–,–,–,"increase in the risk of blood dyscrasias ([6]; post-marketing studies, patients taking carbamezepine): five- to eight-fold increase; patients with a 25% decrease in their white blood cell count ([6]; usually reverses within the first 4 months of therapy): 7%"
